In brackets after ≈: the same amount, converted by molar mass.
Columns and labels:
pAMPK = pAMPK immunoblotting in Beas2B cells (Table 1); format: cell-based; conditions: Homo sapiens, BEAS-2B, DMEM media without glucose, compounds 18 h
Protocol: Additional compounds in Table 1 were or can be prepared according to the above-described Examples. Human bronchial epithelial cells (Beas2B) were seeded in 6-well plates for 18 h. Cells were then exposed to DMEM media without glucose and compounds at various concentrations for an additional 18 h before being collected for immunoblotting.

phospho-AMPK = phospho-AMPK / p-ACC immunoblotting in Beas2B cells (in vitro studies); format: cell-based, Human
Protocol: FIG. 3. (A) Beas2b cells were cultured in DMEM 2% media with glucose for 24 h before switching to glucose-free media. Cells were then exposed to either DMSO or Compound 1 (2 μM) in a time course before being collected for immunoblotting. (B) Beas2B cells were exposed to Compound 1 for 18 h at various doses before being collected for immunoblotting. (C) Beas2b cells were cultured in DMEM 2% media with glucose for 24 h before switching to glucose-free media. Cells were then exposed to AICAR at various doses with or without Compound 1 co-treatment. After 18 h, cells were collected before being assayed by immunoblotting.
FIG. 4. (A) Beas2b cells were cultured in DMEM 2% media with glucose for 24 h before switching to glucose-free media. Cells were then exposed to Compound 12 in a dose dependent manner for 18 h before being collected for immunoblotting. (B) Beas2b cells were cultured in DMEM 2% media with glucose for 24 h before Compound 12 treatment in a dose dependent manner. After 18 h, cells were then collected for immunoblotting. (C) Beas2b cells were cultured in DMEM 2% media with glucose for 24 h before switching to glucose-free media. Cells were then exposed to Compound 12 for 18 h before being collected for mRNA analysis. (D) 50K PBMC cells were cultured in 96 well plates before being exposed to Compound 12 for 4 h. Cells were then treated with LPS (10 ng/ml) for additional 2 h. Media were then collected and IL-1b concentration was determined by ELISA.
FIG. 9. (A) Beas2b cells were cultured in DMEM 2% media with glucose for 24 h before switching to glucose-free media. Cells were then exposed to Compound 23 or metformin in a dose dependent manner for 18 h before being collected for immunoblotting. (B) Beas2b cells were cultured in DMEM 2% media with glucose for 24 h before switching to glucose-free media and treated with Compound 12 or Compound 23 in a dose dependent manner. After 6 h, cells were then collected for immunoblotting. (C) Beas2b cells were cultured in DMEM 2% media with glucose for 24 h before switching to glucose-free media and treated with Compound 12 or Compound 23 in a dose dependent manner. After 18 h, cells were then collected for immunoblotting. (D) Beas2b cells were transfected with AMPK phospho mimic T172D or phospho dead T172A mutant for 24 h. Cells were then switched to glucose-free media and exposed to Compound 23 in a dose or time dependent manner before being collected for immunoblotting. (E) Beas2b cells were transfected with control siRNA or Fbxo48 siRNA for 48 h before switching to glucose-free media. Cells were then exposed to Compound 23 in a dose dependent manner before being collected for immunoblotting. (F) Compound 23 chemical structure.
Compound 1 was studied in in vitro assays using Beas2B cells. […]
Compound 23 was tested in in vitro studies using Beas2B cells and compared with metformin.

Diet-induced obese mice = Diet-induced obese mice study, 14 days dosing; format: in vivo; conditions: once daily for 14 days; BC1618 8 or 40 mg/kg/d
Protocol: FIG. 12. Diet-induced obese mice were fed a high-fat diet for 19 weeks and then injected with vehicle or drug once daily for 14 days. Daily body weights (in grams) of the mice are shown.
Diet-induced obese mice arrived from Jackson Labs and recovered two weeks in satellite housing before study. Mice were 25 weeks old and fed a high-fat diet for 19 weeks at the time of study. Body weight, fat and lean mass were measured and mice were grouped in order to match body weights at ˜46.5 g average per group prior to study. Following the acute dosing trial, mice were injected with vehicle or drug 1× daily between noon and 2 pm for 14 days (BC1618-L (low dose)=8 mg/kg/d, BC1618-H (high dose)=40 mg/kg/d). Body weight was recorded daily (FIGS. 12-15). FIG. 12 and FIG. 13 show body weight in grams and FIG. 14 and FIG. 15 show body weight as a percentage of body weight on day 0 (DO).
FIGS. 16-19 show the change (A) in body weight (BW) from day 0 to day 14 expressed as change in grams (FIG. 16 and FIG. 17) or as percent change from day 0 (FIG. 18 and FIG. 19).
Body composition was measured at DO in the body weight matched animals and again at day 14 (D14). Data in FIGS. 20-23 represent the change in fat mass from DO to D14 expressed as grams (FIG. 20 and FIG. 21) or as percent change (FIG. 22 and FIG. 23).
Data in FIGS. 24-27 represent the change in lean mass from DO to D14 expressed as grams (FIG. 24 and FIG. 25) and as percent change (FIG. 26 and FIG. 27). Overall there appears to be a modest effect of vehicle and drug to reduce lean mass over 14 days, but no differences between groups. Changes in BW over 14 days therefore reflect changes in fat mass and not lean mass.

[1] = system: High-fat diet fed C57BL6J mice; test: Acute oral dosing study in high-fat diet fed mice; format: in vivo

SMILES	IC50 (pAMPK) [µg/mL]	also measured
O=C(c1ccccc1)c1ccc(OCC(O)CN(Cc2ccccc2)Cc2ccccc2)cc1 (centres unmarked) [Compound 21]	> 10	
OC(CNC(c1ccccc1)c1ccccc1)COc1ccc(C2CCCCC2)cc1 (centres unmarked) [Compound 18]	1 to 10 (≈ 2.41 to 24.1 µM)	
OC(CNCC(c1ccccc1)c1ccccc1)COc1ccccc1 (centres unmarked) [Compound 14]	1 to 10 (≈ 2.88 to 28.8 µM)	
OC(CNC(c1ccccc1)c1ccccc1)COc1ccc(F)cc1 (centres unmarked) [Compound 11]	1 to 10 (≈ 2.85 to 28.5 µM)	
OC(CCc1ccccc1)CN(Cc1ccccc1)Cc1ccccc1 (centres unmarked) [Compound 25]	> 10	
NC(=O)c1ncn([C@@H]2O[C@H](CO)[C@@H](O)[C@H]2O)c1N [AICAR, reference compound]		concentration at which phospho-AMPK levels increased (phospho-AMPK; Beas2b, glucose-free media, 18 h, dose dependent): ~0.05 mM; body weight loss (daily body weight) (Diet-induced obese mice): effect of AICAR and BC1618 on body weight loss; change in body weight from day 0 to day 14 (Diet-induced obese mice): an effect due to AICAR or BC1618; change in fat mass from D0 to D14 (Diet-induced obese mice): apparent additive effect; glucose tolerance (intraperitoneal glucose tolerance test) ([1]; 1 g/kg body weight glucose, data not shown): no difference in glucose tolerance; body weight at the time of study ([1]; two oral doses (AICAR 200 mg/kg, BC1618 20 mg/kg)): no differences in body weight; reduction of fasting plasma glucose compared to vehicle ([1]; two oral doses (AICAR 200 mg/kg, BC1618 20 mg/kg), 2 h after second dose, P=0.08): 10%
COc1ccc(OCC(O)CNCC(c2ccccc2)c2ccccc2)cc1 (centres unmarked) [Compound 17]	1 to 10 (≈ 2.65 to 26.5 µM)	
OC(CNCc1ccccc1)COc1ccc(OCC(O)CNCc2ccccc2)cc1 (centres unmarked) [Compound 8]	> 10	
OC(CNC(c1ccccc1)c1ccccc1)COc1ccccc1 (centres unmarked) [Compound 13]	1 to 10 (≈ 3 to 30 µM)	
OC(CNc1ccc(F)cc1)COc1ccc(F)cc1 (centres unmarked) [Compound 28]	> 10	
OC(CNCC(c1ccccc1)c1ccccc1)COc1ccc(C2CCCCC2)cc1 (centres unmarked) [Compound 20]	> 10	
COc1ccc(OCC(O)CN(Cc2ccccc2)Cc2ccccc2)cc1 (centres unmarked) [Compound 6]	1 to 10 (≈ 2.65 to 26.5 µM)	
OC(COc1ccc(OCC(O)CN(Cc2ccccc2)Cc2ccccc2)cc1)CN(Cc1ccccc1)Cc1ccccc1 (centres unmarked) [Compound 1]	1 to 10 (≈ 1.62 to 16.2 µM)	concentration leading to a drastic increase in phospho-AMPK levels (phospho-AMPK; Beas2B cells, 18 h, various doses): 2 µM; phospho-AMPK levels compared to vehicle control (phospho-AMPK; Beas2b, glucose-free media, 2 μM, time course, within 2 h): drastically increased; phospho-AMPK and downstream p-ACC levels versus AICAR (phospho-AMPK; Compound 1 alone at 4 μM, AICAR at 0.25 mM): well exceeding AICAR treatment at 0.25 mM; effect of co-treatment with AICAR on phospho-AMPK (phospho-AMPK; Compound 1 at 4 μM with AICAR at various doses, 18 h): completely saturated AICAR effects
Cc1ccccc1OCC(O)CN(Cc1ccccc1)Cc1ccccc1 (centres unmarked) [Compound 9]	1 to 10 (≈ 2.77 to 27.7 µM)	
CC1CN(Cc2ccc(OCC(O)CN(C)Cc3ccccc3)cc2)C1 (centres unmarked) [Compound 10]	> 10	
Cc1ccc(OCC(O)CN(Cc2ccccc2)Cc2ccccc2)cc1 (centres unmarked) [Compound 5]	1 to 10 (≈ 2.77 to 27.7 µM)	
Cc1ccccc1CNCc1ccc(OCC(O)CN(C)Cc2ccccc2)cc1 (centres unmarked) [Compound 4]	> 10	
OC(COc1ccccc1)CN(Cc1ccccc1)Cc1ccccc1 (centres unmarked) [Compound 16]	1 to 10 (≈ 2.88 to 28.8 µM)	
CN(C)C(=N)N=C(N)N [metformin, reference compound]		concentration range increasing pAMPK phosphorylation and downstream substrate ACC phosphorylation (phospho-AMPK; Beas2b, glucose-free media, 18 h): millimolar
CN(Cc1ccccc1)CC(O)COc1ccc(CNC2CC2)cc1 (centres unmarked) [Compound 3]	> 10	
OC(COc1ccc(-c2ccccn2)cc1)CN(Cc1ccccc1)Cc1ccccc1 (centres unmarked) [Compound 22]	> 10	
OC(COc1ccc2ccccc2c1)CN(Cc1ccccc1)Cc1ccccc1 (centres unmarked) [Compound 7]	1 to 10 (≈ 2.52 to 25.2 µM)	
OC(COc1ccc(C2CCCCC2)cc1)CN(Cc1ccccc1)Cc1ccccc1 (centres unmarked) [Compound 19]	1 to 10 (≈ 2.33 to 23.3 µM)	
COCCN(Cc1ccc(OCC(O)CN(C)Cc2ccccc2)cc1)C(C)C (centres unmarked) [Compound 2]	> 10	
OC(CNC1c2ccccc2Oc2ccccc21)COc1ccccc1 (centres unmarked) [Compound 15]	> 10	
OC(COc1ccc(C(F)(F)F)cc1)CN1CCc2ccccc2C1 (centres unmarked) [Compound 26]	> 10	
OC(CNc1ccc(C(F)(F)F)cc1)CNc1ccc(C(F)(F)F)cc1 [Compound 27]	> 10	
OC(CN(Cc1ccccc1)Cc1ccccc1)c1ccc2ccccc2c1 (centres unmarked) [Compound 24]	1 to 10 (≈ 2.72 to 27.2 µM)	

From patent US11673853B2, “Small molecule AMPK activators” (University of Pittsburgh—Of the Commonwealth System of …, priority 2016, dated 2023)
